From patent US9637520B2, “Template-fixed peptidomimetics with CXCR7 modulating activity” (POLYPHOR AG, priority 2010, dated 2017)
Non-standard residues stand in square brackets, D forms with d. Residues, ends and D or L forms follow the SMILES beside them. Arg(Nω,Nω'-propylene) = N[C@@H](CCCNC1=NCCCN1)C(=O)O; Ala(pyrazol-1-yl) = N[C@@H](Cn1cccn1)C(=O)O; dPro(cis-4-NH2) = N[C@H]1CN[C@@H](C(=O)O)C1; 3Pal = N[C@@H](Cc1cccnc1)C(=O)O; Tic = O=C(O)[C@@H]1Cc2ccccc2CN1; d3Pal = N[C@H](Cc1cccnc1)C(=O)O; Orn = NCCC[C@H](N)C(=O)O

Target: T1, CXCR7 (Homo sapiens, UniProt P25106)
T1 construct: host or cells: CHO (PathHunter CHO-CXCR7 β-arrestin cells)
Assay: CXCR7 β-arrestin recruitment assay (PathHunter CHO-CXCR7, DiscoverX), agonistic assay
Assay type: cell-based
Details: agonistic assay; CHO CXCR7 β-arrestin cells; 90 min at 37° C.; chemiluminescence; read-out: β-Arrestin EC50
Summary of the method: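 CHO cells co-expressing CXCR7 and β-arrestin (PathHunter), seeded overnight, then exposed to serially diluted compounds at 1% DMSO for 90 min at 37 °C; SDF-1 served as positive agonist control. Enzyme-fragment complementation detection developed 90 min at room temperature, read by chemiluminescence.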

T1 sequence (P25106 whole entry): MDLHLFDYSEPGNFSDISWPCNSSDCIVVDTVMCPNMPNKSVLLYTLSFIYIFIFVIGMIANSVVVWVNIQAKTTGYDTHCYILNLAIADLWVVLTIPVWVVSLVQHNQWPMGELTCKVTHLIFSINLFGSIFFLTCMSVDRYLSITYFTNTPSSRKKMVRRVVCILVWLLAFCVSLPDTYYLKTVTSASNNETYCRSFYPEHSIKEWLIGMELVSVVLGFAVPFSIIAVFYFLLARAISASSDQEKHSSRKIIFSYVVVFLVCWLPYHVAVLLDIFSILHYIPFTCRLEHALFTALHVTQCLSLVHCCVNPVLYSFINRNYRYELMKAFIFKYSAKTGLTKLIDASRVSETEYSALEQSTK

Compound | EC50
N=C(N)NCCC[C@@H]1NC(=O)[C@H](Cc2c[nH]c3ccccc23)NC(=O)[C@@H](Cc2cccnc2)NC(=O)[C@H](Cc2c[nH]c3ccccc23)NC(=O)[C@@H]2Cc3ccccc3CN2C(=O)[C@H]2C[C@@H](N)CN2C1=O [compound 38, cyclo(-Trp-^D3Pal-Trp-Arg-^DPro((4R)NH2)-Tic-)] (cyclo(R[dPro(cis-4-NH2)][Tic]W[d3Pal]W)) | 0.0061 ± 0.0015 µM
N=C(N)NCCC[C@@H]1NC(=O)[C@H](Cc2c[nH]c3ccccc23)NC(=O)[C@@H](Cc2ccccc2)NC(=O)[C@H](Cc2cccnc2)NC(=O)[C@@H]2Cc3ccccc3CN2C(=O)[C@H]2C[C@@H](N)CN2C1=O [compound 37, cyclo(-3Pal-^DPhe-Trp-Arg-^DPro((4R)NH2)-Tic-)] (cyclo([3Pal][dF]WR[dPro(cis-4-NH2)][Tic])) | 0.0051 ± 0.0009 µM
N=C(N)NCCC[C@@H]1NC(=O)[C@H](Cc2c[nH]c3ccccc23)NC(=O)[C@@H](Cc2ccccc2)NC(=O)[C@H](Cn2cccn2)NC(=O)[C@@H]2Cc3ccccc3CN2C(=O)[C@H]2C[C@@H](N)CN2C1=O [Ex. 74, cyclo(-Ala(1Pyraz)-^DPhe-Trp-Arg-^DPro((4R)NH2)-Tic-)] (cyclo(R[dPro(cis-4-NH2)][Tic][Ala(pyrazol-1-yl)][dF]W)) | 0.0299 ± 0.0089 µM
CC[C@H](C)[C@@H]1NC(=O)[C@H]([C@@H](C)O)NC(=O)[C@H]2CCCN2C(=O)[C@H](Cc2ccc(O)cc2)NC(=O)[C@H](CCCNC(=N)N)NC(=O)[C@@H](CCCNC(=N)N)NC1=O [Ex. 2, cyclo(-Ile-^DArg-Arg-Tyr-^DPro-Thr-)] (cyclo(I[dR]RY[dP]T)) | 0.0837 ± 0.0774 µM

Other lines, results leading:

EC50 | Compound
0.271 ± 0.0002 µM | CC(C)[C@@H]1NC(=O)[C@H]([C@@H](C)O)NC(=O)[C@H]2CCCN2C(=O)[C@H](Cc2c[nH]c3ccccc23)NC(=O)[C@H](CCCNC(=N)N)NC(=O)[C@@H](CCCNC(=N)N)NC1=O [compound 57, cyclo(-Val-^DArg-Arg-Trp-^DPro-Thr-)] (cyclo(RW[dP]TV[dR]))
0.0032 ± 0.0027 µM | CC[C@H](C)[C@@H]1NC(=O)[C@H]([C@@H](C)O)NC(=O)[C@H]2CCCN2C(=O)[C@H](Cc2c[nH]c3ccccc23)NC(=O)[C@H](CCCNC2=NCCCN2)NC(=O)[C@@H](CCCNC(=N)N)NC1=O [Ex. 71, cyclo(-Ile-^DArg-Orn(A56)-Trp-^DPro-Thr-)] (cyclo(I[dR][Arg(Nω,Nω'-propylene)]W[dP]T))
0.0867 ± 0.0097 µM | CC[C@H](C)[C@@H]1NC(=O)[C@H]([C@@H](C)O)NC(=O)[C@H]2CCCN2C(=O)[C@H](Cc2c[nH]c3ccccc23)NC(=O)[C@H](CCCNC(=N)N)NC(=O)[C@@H](CCCCN)NC1=O [compound 11, cyclo(-Ile-^DLys-Arg-Trp-^DPro-Thr-)] (cyclo(I[dK]RW[dP]T))
0.816 ± 0.0588 µM | CC[C@H](C)[C@@H]1NC(=O)[C@H]([C@@H](C)O)NC(=O)[C@H]2CCCN2C(=O)[C@H](Cc2c[nH]c3ccccc23)NC(=O)[C@H](CCCN)NC(=O)[C@@H](CCCNC(=N)N)NC1=O [compound 65, cyclo(-Ile-^DArg-Orn-Trp-^DPro-Thr-)] (cyclo(I[dR][Orn]W[dP]T))
0.949 ± 0.0753 µM | CC[C@H](C)[C@@H]1NC(=O)[C@H]([C@@H](C)O)NC(=O)[C@H]2C[C@@H](N)CN2C(=O)[C@H](Cc2c[nH]c3ccccc23)NC(=O)[C@H](CCCNC(=N)N)NC(=O)[C@@H](CCCNC(=N)N)NC1=O [Ex. 56, cyclo(-Ile-^DArg-Arg-Trp-^DPro((4R)NH2)-Thr-)] (cyclo(I[dR]RW[dPro(cis-4-NH2)]T))
